Earlier results on one compound are cited in US11998562B2 (priority 2021, dated 2024).

Entries after “also recorded” stand apart in the source; their conditions may differ.

In general, IC50 refers to the midpoint of a concentration-inhibition curve.

In one data set the test system is SARS-CoV. Conditions: HAE cells; read-out: IC50, inhibition of SARS-CoV replication.
For data set [1] the following is noted: oral delivery.

As for `CCC(CC)COC(=O)[C@H](C)N[P@](=O)(OC[C@H]1O[C@@](C#N)(c2ccc3c(N)ncnn23)[C@H](O)[C@@H]1O)Oc1ccccc1` [Remdesivir, 2-Ethylbutyl (2S)-2-{[(S)-{[(2R,3S,4R,5R)-5-(4-aminopyrrolo[2,1-f][1,2,4]triazin-7-yl)-5-cyano-3,4-dihydroxytetrahydrofuran-2-yl]methoxy}(phenoxy)phosphoryl]amino}propanoate], the solubility in water entry is recorded as “practically insoluble; also recorded: poorly water soluble”. For the same compound, the IC50 in the data set with SARS-CoV was 69 nM. The first-pass clearance result in data set [1] was “complete”.
